Marks after values point to notes of the source that are not given here.
Columns and labels:
mouse splenocytes = test: IL-2 levels in supernatants of cultured mouse splenocytes (WT or GPR174-KO) stimulated with anti-CD3 and anti-CD28, MSD platform; type: cell-based; conditions: WT splenocytes, no NECA, 2 days; compound 10 1 μM, ZM-241385 0.1 μM; FIG. 68A
Method: To make single cell suspensions from mouse splenocytes, spleens were cut into 1-2 mm^3 pieces with a razor blade and incubated at 37° C. with 10 μg/mL DNase and 1 mg/mL Collagenase D with agitation for 90 min. Spleen fragments and cells were then pressed through a nylon screen, and the resulting cell suspension was washed. In 96-well flat-bottom plates, splenocytes were cultured in quadruplicate with the following conditions for 2 days, after which supernatants were tested for cytokine levels with the MSD platform.
Anti-CD3 (clone 2C11; 0.1 μg/mL)
GPR174 inhibitor (compound 10, 1 μM or 0.3 μM, or DMSO vehicle control)
GPR174 inhibitor (compound 6, 0.3 μM, or DMSO vehicle control)
Adenosine receptor agonist (NECA, 0.1 μM)

human PBMCs = test: Th1 cytokines in supernatants of stimulated human PBMC, GPR174 inhibitor with adenosine pathway inhibitors (Examples 15, 18-22); type: cell-based; conditions: for IFN-γ fold increase (FIG. 44): Example 15; for IFN-γ, ratio relative to vehicle control (Veh column) / IL-2, ratio relative to vehicle control (Veh column) / TNF, ratio relative to vehicle control (Veh column): donor 3, no MRS, Cmpd 10 1, ZM 0.1, PBF 0.1, SCH 0.2 μM, ADA 0.75 μg/mL
Summary of the method: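 Human donor PBMCs (1×10^6 cells/well) were stimulated with 1 µg/mL anti-CD3 (UCHT1) plus 0.1 µg/mL anti-CD28 (CD28.2) for 24 h with test agents. IFN-γ, IL-2, TNF and GM-CSF in supernatants were measured by ELISA, Legendplex or MSD. Fold changes were compared by one-way ANOVA with Tukey correction.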

[1] = 12 donors, Cmpd 10 1-2 μM, ZM 0.2-1 μM
[2] = 12 donors, Cmpd 10 1-2 μM, ZM 0.2-1 μM, 24 h
[3] = donor 1, 24 h, Cmp 10 2 μM alone
[4] = donor 1, 24 h, Cmp 10 2 μM alone, listed as Cmp 10
[5] = donor 1, SCH-58261 0.2 μM, alone (label SCH) or with Cmp 10 2 μM (label Cmp 10)
[6] = donor 1, SCH-58261 0.6 μM, alone (label SCH) or with Cmp 10 2 μM (label Cmp 10)
[7] = donor 1, SCH-58261 2 μM, alone (label SCH) or with Cmp 10 2 μM (label Cmp 10)
[8] = donor 2, Cmpd 10 1 μM alone, listed as Cmpd 10
[9] = donor 2, PBF-509 0.1 μM, alone (label PBF) or with Cmpd 10 1 μM (label Cmpd 10)
[10] = donor 2, PBF-509 0.1 μM, alone (label PBF) or with Cmpd 10 1 μM (label Cmpd 10), listed as Cmpd 10
[11] = donor 2, ZM-241385 0.2 μM, alone (label ZM) or with Cmpd 10 1 μM (label Cmpd 10)
[12] = donor 2, ZM-241385 0.2 μM, alone (label ZM) or with Cmpd 10 1 μM (label Cmpd 10), listed as Cmpd 10

CC1CCN(c2cc(N3CCN(S(=O)(=O)c4ccccc4)CC3)c([N+](=O)[O-])cc2F)CC1 [compound 10]
increase of IL-2 levels (mouse splenocytes): greater than 4 fold | GM-CSF fold-change (FC) vs ZM alone (human PBMCs; 9 donors, Cmpd 10 1-2 μM, ZM 0.2-1 μM): 1.1 fold | GM-CSF mean fold-change (FC) vs vehicle (human PBMCs; 9 donors, Cmpd 10 1-2 μM, ZM 0.2-1 μM, 24 h): 1.4 fold | IFN-γ fold-change (FC) vs ZM alone (human PBMCs; [1]): 1.3 fold | IL-2 fold-change (FC) vs ZM alone (human PBMCs; [1]): 1.2 fold | TNF fold-change (FC) vs ZM alone (human PBMCs; [1]): 1.3 fold | IFN-γ mean fold-change (FC) vs vehicle (human PBMCs; [2]): 2.8 fold | IL-2 mean fold-change (FC) vs vehicle (human PBMCs; [2]): 1.7 fold | TNF mean fold-change (FC) vs vehicle (human PBMCs; [2]): 2.7 fold | IFN-γ fold increase (FIG. 44) (human PBMCs; 24 h, ZM241385 1 μM, alone (label ZM241385) or with compound 10 3 μM (label compound 10)): 9.3 fold | IFN-γ fold increase (FIG. 44) (human PBMCs; 24 h, ZM241385 10 μM, alone (label ZM241385) or with compound 10 3 μM (label compound 10)): 17.1 fold | IFN-γ fold increase (FIG. 44) (human PBMCs; 24 h, compound 10 3 μM alone): 2.3 fold | IFN-γ fold-change relative to vehicle control (human PBMCs; [3]): 4.9 fold | IL-2 fold-change relative to vehicle control (human PBMCs; [3]): no effect | TNF fold-change relative to vehicle control (human PBMCs; [3]): 4.2 fold | IFN-γ fold-change relative to vehicle control (human PBMCs; [4]): 4.9* fold | IL-2 fold-change relative to vehicle control (human PBMCs; [4]): 0.9 fold | TNF fold-change relative to vehicle control (human PBMCs; [4]): 4.2* fold | IFN-γ fold-change relative to vehicle control (human PBMCs; [5]): 11.8* fold | IL-2 fold-change relative to vehicle control (human PBMCs; [5]): 1.5* fold | TNF fold-change relative to vehicle control (human PBMCs; [5]): 14.2* fold | IFN-γ fold-change relative to vehicle control (human PBMCs; [6]): 11.3* fold | IL-2 fold-change relative to vehicle control (human PBMCs; [6]): 1.4* fold | TNF fold-change relative to vehicle control (human PBMCs; [6]): 15.9* fold | IFN-γ fold-change relative to vehicle control (human PBMCs; [7]): 11.0* fold | IL-2 fold-change relative to vehicle control (human PBMCs; [7]): 1.4* fold | TNF fold-change relative to vehicle control (human PBMCs; [7]): 14.7* fold | IFN-γ fold-change relative to vehicle control (human PBMCs; donor 2, Cmpd 10 1 μM alone): 1.6 fold | IL-2 fold-change relative to vehicle control (human PBMCs; donor 2, Cmpd 10 1 μM alone): 1.1 fold | TNF fold-change relative to vehicle control (human PBMCs; donor 2, Cmpd 10 1 μM alone): 1.5 fold | IFN-γ fold-change relative to vehicle control (human PBMCs; [8]): 1.6* fold | TNF fold-change relative to vehicle control (human PBMCs; [8]): 1.5* fold | IFN-γ fold-change relative to vehicle control (human PBMCs; [9]): 3.5 fold | IL-2 fold-change relative to vehicle control (human PBMCs; [9]): 2.0 fold | TNF fold-change relative to vehicle control (human PBMCs; [9]): 2.3 fold | IFN-γ fold-change relative to vehicle control (human PBMCs; [10]): 3.5* fold | IL-2 fold-change relative to vehicle control (human PBMCs; [10]): 2.0* fold | TNF fold-change relative to vehicle control (human PBMCs; [10]): 2.3* fold | IFN-γ fold-change relative to vehicle control (human PBMCs; [11]): 8.8 fold | IL-2 fold-change relative to vehicle control (human PBMCs; [11]): 2.6 fold | TNF fold-change relative to vehicle control (human PBMCs; [11]): 4.0 fold | IFN-γ fold-change relative to vehicle control (human PBMCs; [12]): 8.8* fold | IL-2 fold-change relative to vehicle control (human PBMCs; [12]): 2.6* fold | TNF fold-change relative to vehicle control (human PBMCs; [12]): 4.0* fold | IFN-γ, MRS/Veh: ratio in the presence vs. the absence of MRS-1754 (human PBMCs; donor 3): 0.8* | IL-2, MRS/Veh: ratio in the presence vs. the absence of MRS-1754 (human PBMCs; donor 3): 1.5* | TNF, MRS/Veh: ratio in the presence vs. the absence of MRS-1754 (human PBMCs; donor 3): 1.1 | IFN-γ, ratio relative to vehicle control (Veh column) (human PBMCs): 2.8 fold | IL-2, ratio relative to vehicle control (Veh column) (human PBMCs): 2.9 fold | TNF, ratio relative to vehicle control (Veh column) (human PBMCs): 4.1 fold | IFN-γ, ratio relative to vehicle control (Veh column) (human PBMCs; listed as Cmpd 10): 2.8* fold | IL-2, ratio relative to vehicle control (Veh column) (human PBMCs; listed as Cmpd 10): 2.9* fold | TNF, ratio relative to vehicle control (Veh column) (human PBMCs; listed as Cmpd 10): 4.1* fold
